Patent US20210323976A1, “HETEROARYL COMPOUNDS FOR KINASE INHIBITION” (ARIAD Pharmaceuticals, Inc., priority 2015, published 2021)

Key:
Format in all cases: cell-based
[1] = molecular target: EGFR exon 20 NPG insertion (H773_V774insNPG) (Homo sapiens, UniProt P00533, cells depend on it, form not given); assay: Ba/F3-EGFR-Exon20-NPG cell anti-proliferation assay (MTS, CellTiter 96 AQueous One); conditions: 72 h, MTS signal
Excerpt: (§1) A compound's ability in selectively inhibiting EGFR exon 20 insertion mutations can be assessed using Ba/F3 cells, a murine pro-B cell line, which have been transduced with EGFR exon 20 insertions. An expression vector, pLVX-IRES puro (Clontech) coding for human EGFR exon 20 insertions NPG (H773_V774insNPG) or ASV (V769_D770insASV), was transfected into HEK293 cells by the Trans-Lentiviral ORF Packaging System (Thermo Scientific), to produce virus encoding EGFR exon 20 insertions. Ba/F3 (DSMZ) cells maintained in RPM11640 medium supplemented with 10% fetal bovine serum, 200 pM L-glutamine/200 µg/mL penicillin/200 µg/mL streptomycin (Life Technology) and 10 ng/mL IL-3 (R&D system), were infected by EGFR Exon20 virus and subsequently selected by puromycin (Life Technology) selection and IL-3 depletion. Ba/F3 cells expressing EGFR exon 20 insertions (named Ba/F3-EGFR-Exon20-NPG or Ba/F3-EGFR-Exon20-ASV) can proliferate in the absence of IL-3. The anti-proliferative activity of compounds were determined as follows: BaF3-EGFR-Exon20 cells (NPG or ASV) seeded in 96 well plates (2500 cells/well) were treated with test compound (dissolved in DMSO) at a series of concentrations (4-fold dilution, top concentration: 10,000 nM). The plates were incubated for 72 h in a 37° C. incubator with 5% CO2, and the number of viable cells in each well were measured indirectly by CellTiter 96® Aqueous One Solution Cell Proliferation Assay (Promega) This assay is a colorimetric method for determining the number of viable cells through measurement of their metabolic activity by detection of enzymatic conversion of tetrazolium salts into blue formazan derivatives. Reagent (20 pL) was added into each well, and the plates were returned to the incubator for 2 h. The absorbance in each well was then measured at 490 nm using an Envision plate reader (Perkin Elmer). IC50 values were calculated by determining the concentration of compound required to decrease the MTS signal by 50% comparing to the DMSO control in best-fit curves using Microsoft XLfit software or Accelrys Pipeline Pilot.

[2] = molecular target: T1, EGFR exon 20 ASV insertion (V769_D770insASV) (Homo sapiens, UniProt P00533, INS769ASV); assay: Ba/F3-EGFR-Exon20-ASV cell anti-proliferation assay (MTS, CellTiter 96 AQueous One); conditions: Ba/F3-EGFR-Exon20-ASV cells, 72 h, MTS signal
T1 construct: expressed in transfected cells; host or cells: Ba/F3 (murine pro-B) cells, lentiviral transduction with pLVX-IRES puro
T1 sequence (P00533 with tags, fused parts or gaps INS769ASV): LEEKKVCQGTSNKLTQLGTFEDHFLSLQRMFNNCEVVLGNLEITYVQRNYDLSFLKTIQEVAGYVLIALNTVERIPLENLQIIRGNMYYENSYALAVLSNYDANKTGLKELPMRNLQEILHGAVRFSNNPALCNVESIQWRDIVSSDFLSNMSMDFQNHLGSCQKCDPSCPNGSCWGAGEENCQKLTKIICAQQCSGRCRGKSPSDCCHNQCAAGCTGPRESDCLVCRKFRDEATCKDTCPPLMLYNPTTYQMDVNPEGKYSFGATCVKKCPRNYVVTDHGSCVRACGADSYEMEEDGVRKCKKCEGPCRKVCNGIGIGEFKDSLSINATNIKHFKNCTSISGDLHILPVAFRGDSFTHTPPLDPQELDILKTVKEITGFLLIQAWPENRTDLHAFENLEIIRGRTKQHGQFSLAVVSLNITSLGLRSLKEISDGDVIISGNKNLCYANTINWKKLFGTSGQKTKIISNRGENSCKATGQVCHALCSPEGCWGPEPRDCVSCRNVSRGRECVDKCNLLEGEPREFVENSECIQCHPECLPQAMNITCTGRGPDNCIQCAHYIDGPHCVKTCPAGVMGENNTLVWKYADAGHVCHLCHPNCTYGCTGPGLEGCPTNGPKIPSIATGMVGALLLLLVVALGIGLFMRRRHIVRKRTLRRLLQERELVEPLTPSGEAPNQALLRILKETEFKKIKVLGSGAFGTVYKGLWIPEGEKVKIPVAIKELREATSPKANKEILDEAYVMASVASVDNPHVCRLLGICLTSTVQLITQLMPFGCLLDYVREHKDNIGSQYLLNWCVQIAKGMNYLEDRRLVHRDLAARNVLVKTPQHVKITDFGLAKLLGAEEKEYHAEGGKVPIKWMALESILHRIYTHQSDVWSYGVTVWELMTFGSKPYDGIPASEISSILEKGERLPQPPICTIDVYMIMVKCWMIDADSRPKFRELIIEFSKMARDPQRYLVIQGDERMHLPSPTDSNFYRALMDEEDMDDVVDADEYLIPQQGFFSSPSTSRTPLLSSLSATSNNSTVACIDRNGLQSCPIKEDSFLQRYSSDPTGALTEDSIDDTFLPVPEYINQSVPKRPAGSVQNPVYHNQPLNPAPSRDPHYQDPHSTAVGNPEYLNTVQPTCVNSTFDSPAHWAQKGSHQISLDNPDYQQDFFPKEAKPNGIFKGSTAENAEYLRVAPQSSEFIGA
Excerpt: as §1

[3] = molecular target: T2, EGFR exon 19 deletion (E746-A750) and T790M mutation (Homo sapiens, UniProt P00533, DEL746-750/T790M); assay: Ba/F3-EGFR-Del/T790M cell anti-proliferation assay (MTS); conditions: Ba/F3-EGFR-Del/T790M cells, 72 h, MTS signal
T2 construct: expressed in transfected cells; host or cells: Ba/F3 (murine pro-B) cells, lentiviral transduction with pLVX-IRES puro
T2 sequence (P00533 with tags, fused parts or gaps DEL746-750/T790M): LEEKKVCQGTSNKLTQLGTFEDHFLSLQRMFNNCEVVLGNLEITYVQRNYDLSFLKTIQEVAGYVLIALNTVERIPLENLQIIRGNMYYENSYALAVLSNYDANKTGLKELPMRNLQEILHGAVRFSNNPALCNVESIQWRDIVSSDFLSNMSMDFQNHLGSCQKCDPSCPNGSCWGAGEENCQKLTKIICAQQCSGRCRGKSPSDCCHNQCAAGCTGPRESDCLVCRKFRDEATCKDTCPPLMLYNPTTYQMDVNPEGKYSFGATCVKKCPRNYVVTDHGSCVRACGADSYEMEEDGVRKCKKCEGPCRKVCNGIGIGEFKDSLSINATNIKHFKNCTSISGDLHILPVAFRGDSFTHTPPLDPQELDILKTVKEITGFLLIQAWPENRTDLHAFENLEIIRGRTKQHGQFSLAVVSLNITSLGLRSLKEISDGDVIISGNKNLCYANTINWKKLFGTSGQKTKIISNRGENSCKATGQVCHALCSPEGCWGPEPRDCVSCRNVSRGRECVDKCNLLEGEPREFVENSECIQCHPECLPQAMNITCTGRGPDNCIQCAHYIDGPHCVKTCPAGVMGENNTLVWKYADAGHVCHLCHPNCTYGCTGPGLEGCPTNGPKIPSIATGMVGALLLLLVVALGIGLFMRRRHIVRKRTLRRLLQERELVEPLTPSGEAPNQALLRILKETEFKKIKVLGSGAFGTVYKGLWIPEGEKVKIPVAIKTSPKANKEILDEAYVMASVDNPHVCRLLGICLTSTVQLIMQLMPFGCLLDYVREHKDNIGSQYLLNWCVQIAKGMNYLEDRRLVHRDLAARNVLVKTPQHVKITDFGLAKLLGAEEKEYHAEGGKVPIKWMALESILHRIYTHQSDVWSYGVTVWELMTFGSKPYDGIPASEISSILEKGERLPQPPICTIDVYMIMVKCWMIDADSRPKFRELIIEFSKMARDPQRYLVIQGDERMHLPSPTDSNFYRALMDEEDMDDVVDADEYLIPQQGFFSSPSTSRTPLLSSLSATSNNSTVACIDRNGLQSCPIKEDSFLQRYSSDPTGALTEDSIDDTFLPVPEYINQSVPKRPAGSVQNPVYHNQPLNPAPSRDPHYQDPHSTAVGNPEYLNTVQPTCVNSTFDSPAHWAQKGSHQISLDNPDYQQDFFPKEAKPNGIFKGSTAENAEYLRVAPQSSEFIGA
Excerpt: A compound's ability in selectively inhibiting EGFR exon 19 deletion and T790M concurrent mutations can be assessed using Ba/F3 cells, a murine pro-B cell line, which have been transduced with EGFR exon 19 deletion and T790M mutation. An expression vector, pLVX-IRES puro (Clontech) coding for human EGFR E746-A750 deletion and T790M Mutation, was transfected into HEK293 cells by the Trans-Lentiviral ORF Packaging System (Thermo Scientific), to produce virus encoding EGFR exon 19 deletion and T790M mutations. Ba/F3 (DSMZ) cells maintained in RPM11640 medium supplemented with 10% fetal bovine serum, 200 pM L-glutamine/200 μg/mL penicillin/200 μg/mL streptomycin (Life Technology) and 10 ng/mL IL-3 (R&D system), were infected by EGFR E746-A750 deletion and T790M Mutation virus and subsequently selected by puromycin (Life Technology) selection and IL-3 depletion. Ba/F3 cells expressing EGFR E746-A750 deletion and T790M Mutation (named Ba/F3-EGFR-Del/T790M) can proliferate in the absence of IL-3. The anti-proliferative activity of compounds was determined as follows: BaF3-EGFR-Del/T790M cells seeded in 96 well plates (2500 cells/well) were treated with test compound (dissolved in DMSO) at a series of concentrations (4-fold dilution, top concentration: 10,000 nM). The plates were incubated for 72 h in a 37° C. incubator with 5% CO2, and the number of viable cells in each well were measured indirectly by CellTiter 96® Aqueous One Solution Cell Proliferation Assay (Promega; this assay is a colorimetric method for determining the number of viable cells through measurement of their metabolic activity by detection of enzymatic conversion of tetrazolium salts into blue formazan derivatives). Reagent (20 pL) was added into each well, and the plates were returned to the incubator for 2 h. The absorbance in each well was then measured at 490 nm using an Envision plate reader (Perkin Elmer). IC50 values were calculated by determining the concentration of compound required to decrease the MTS signal by 50% comparing to the DMSO control in best-fit curves using Microsoft XLfit software or Accelrys Pipeline Pilot.

[4] = molecular target: T3, Her2 exon 20 YVMA insertion (A775_G776ins YVMA) (Homo sapiens, UniProt P04626, INS775YVMA); assay: Ba/F3-Her2 Exon20 YVMA cell anti-proliferation assay (MTS); conditions: Ba/F3-Her2 Exon20 YVMA cells, 72 h, MTS signal
T3 construct: expressed in transfected cells; host or cells: Ba/F3 (murine pro-B) cells, lentiviral transduction with pLVX-IRES puro
T3 sequence (P04626 with tags, fused parts or gaps INS775YVMA): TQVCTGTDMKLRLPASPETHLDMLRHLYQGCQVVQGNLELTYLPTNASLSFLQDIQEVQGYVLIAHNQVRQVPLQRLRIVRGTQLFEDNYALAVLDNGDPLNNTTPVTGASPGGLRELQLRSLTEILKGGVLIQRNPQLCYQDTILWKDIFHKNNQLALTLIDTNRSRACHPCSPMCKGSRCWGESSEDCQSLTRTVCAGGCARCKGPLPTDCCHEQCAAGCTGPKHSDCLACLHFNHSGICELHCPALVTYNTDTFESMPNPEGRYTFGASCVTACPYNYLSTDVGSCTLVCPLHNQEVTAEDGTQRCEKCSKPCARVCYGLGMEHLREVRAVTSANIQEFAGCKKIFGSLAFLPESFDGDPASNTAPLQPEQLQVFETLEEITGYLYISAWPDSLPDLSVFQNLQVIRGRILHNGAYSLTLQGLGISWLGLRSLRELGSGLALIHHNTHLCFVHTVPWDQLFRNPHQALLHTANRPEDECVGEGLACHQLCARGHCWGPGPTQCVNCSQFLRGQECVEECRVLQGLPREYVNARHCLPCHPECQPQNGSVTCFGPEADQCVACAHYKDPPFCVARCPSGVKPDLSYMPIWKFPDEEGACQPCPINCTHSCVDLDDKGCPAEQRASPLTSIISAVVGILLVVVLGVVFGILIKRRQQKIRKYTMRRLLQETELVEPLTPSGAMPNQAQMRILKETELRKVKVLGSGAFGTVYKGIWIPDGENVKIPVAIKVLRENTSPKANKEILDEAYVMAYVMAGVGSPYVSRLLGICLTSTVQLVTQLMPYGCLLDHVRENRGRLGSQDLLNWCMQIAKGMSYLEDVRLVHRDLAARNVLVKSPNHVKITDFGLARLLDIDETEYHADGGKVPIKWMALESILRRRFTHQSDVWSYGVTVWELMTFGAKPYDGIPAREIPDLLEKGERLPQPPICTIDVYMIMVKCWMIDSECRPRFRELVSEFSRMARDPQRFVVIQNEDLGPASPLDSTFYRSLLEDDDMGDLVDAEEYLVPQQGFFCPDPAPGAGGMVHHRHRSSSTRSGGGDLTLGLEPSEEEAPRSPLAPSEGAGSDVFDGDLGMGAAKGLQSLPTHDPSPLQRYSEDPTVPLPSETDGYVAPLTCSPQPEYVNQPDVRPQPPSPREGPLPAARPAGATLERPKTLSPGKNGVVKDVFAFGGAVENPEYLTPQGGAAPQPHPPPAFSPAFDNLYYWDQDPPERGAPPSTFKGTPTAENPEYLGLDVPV
Excerpt: A compound's ability in selectively inhibiting Her2 exon 20 YVMA insertion mutations can be assessed using Ba/F3 cells, a murine pro-B cell line, which have been transduced with Her2 Exon20 YVMA insertions. An expression vector, pLVX-IRES puro (Clontech) coding for human EGFR exon 20 insertions YVMA (A775_G776ins YVMA), was transfected into HEK293 cells by the Trans-Lentiviral ORF Packaging System (Thermo Scientific), to produce virus encoding EGFR exon 20 insertions. Ba/F3 (DSMZ) cells maintained in RPM11640 medium supplemented with 10% fetal bovine serum, 200 pM L-glutamine/200 μg/mL penicillin/200 μg/mL streptomycin (Life Technology) and 10 ng/mL IL-3 (R&D system), were infected by EGFR Exon20 virus and subsequently selected by puromycin (Life Technology) selection and IL-3 depletion. Ba/F3 cells expressing Her2 Exon20 YVMA insertions (named Ba/F3-Her2 Exon20 YVMA) can proliferate in the absence of IL-3. The anti-proliferative activity of compounds was determined as follows: BaF3-Her2 Exon20 YVMA cells seeded in 96 well plates (2500 cells/well) were treated with test compound (dissolved in DMSO) at a series of concentrations (4-fold dilution, top concentration: 10,000 nM). The plates were incubated for 72 h in a 37° C. incubator with 5% CO2, and the number of viable cells in each well were measured indirectly by CellTiter 96® Aqueous One Solution Cell Proliferation Assay (Promega; this assay is a colorimetric method for determining the number of viable cells through measurement of their metabolic activity by detection of enzymatic conversion of tetrazolium salts into blue formazan derivatives). Reagent (20 pL) was added into each well, and the plates were returned to the incubator for 2 h. The absorbance in each well was then measured at 490 nm using an Envision plate reader (Perkin Elmer). IC50 values were calculated by determining the concentration of compound required to decrease the MTS signal by 50% comparing to the DMSO control in best-fit curves using Microsoft XLfit software or Accelrys Pipeline Pilot.

EGFR exon 20 NPG insertion (H773_V774insNPG), sequence (P00533 with tags, fused parts or gaps INS772GNP, form open): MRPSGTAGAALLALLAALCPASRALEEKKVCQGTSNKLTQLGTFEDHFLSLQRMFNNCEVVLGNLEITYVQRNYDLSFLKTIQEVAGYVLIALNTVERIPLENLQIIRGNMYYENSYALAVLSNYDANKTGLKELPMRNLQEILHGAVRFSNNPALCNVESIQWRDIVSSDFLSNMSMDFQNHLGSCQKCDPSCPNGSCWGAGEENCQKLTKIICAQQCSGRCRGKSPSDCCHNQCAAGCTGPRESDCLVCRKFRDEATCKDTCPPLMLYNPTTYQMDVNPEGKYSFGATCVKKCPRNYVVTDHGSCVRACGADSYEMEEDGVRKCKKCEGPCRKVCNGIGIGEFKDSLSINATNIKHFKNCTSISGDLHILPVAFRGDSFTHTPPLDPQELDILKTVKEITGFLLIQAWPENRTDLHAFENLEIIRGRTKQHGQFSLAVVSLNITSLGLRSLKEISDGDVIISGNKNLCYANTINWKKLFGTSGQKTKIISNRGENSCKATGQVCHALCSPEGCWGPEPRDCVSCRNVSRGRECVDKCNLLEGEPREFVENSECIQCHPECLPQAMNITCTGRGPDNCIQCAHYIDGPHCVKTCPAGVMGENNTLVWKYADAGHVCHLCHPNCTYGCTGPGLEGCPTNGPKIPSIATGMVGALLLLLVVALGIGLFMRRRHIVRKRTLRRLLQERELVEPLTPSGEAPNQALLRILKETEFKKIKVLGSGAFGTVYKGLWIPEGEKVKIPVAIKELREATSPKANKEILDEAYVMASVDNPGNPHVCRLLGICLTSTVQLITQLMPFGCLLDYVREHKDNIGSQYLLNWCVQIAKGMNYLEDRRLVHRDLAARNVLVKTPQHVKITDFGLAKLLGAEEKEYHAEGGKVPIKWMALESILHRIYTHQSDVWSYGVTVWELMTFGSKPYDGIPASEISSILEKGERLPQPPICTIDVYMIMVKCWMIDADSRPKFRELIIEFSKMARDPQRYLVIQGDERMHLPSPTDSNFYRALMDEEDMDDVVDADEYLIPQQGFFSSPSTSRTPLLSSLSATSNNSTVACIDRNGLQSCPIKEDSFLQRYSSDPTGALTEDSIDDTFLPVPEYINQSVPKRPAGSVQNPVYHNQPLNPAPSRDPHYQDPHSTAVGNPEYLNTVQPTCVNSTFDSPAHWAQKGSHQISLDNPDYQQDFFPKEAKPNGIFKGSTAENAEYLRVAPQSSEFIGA

| Compound | IC50 [1] [nM] | IC50 [2] [nM] | EGFR exon 19 deletion and T790M mutation IC50 [3] | IC50 [4] [nM] |
| --- | --- | --- | --- | --- |
| C=CC(=O)Nc1cc(Nc2ncc(C#N)c(-c3c4n(c5ccccc35)CCOC4)n2)c(OC)cc1N(C)CCN(C)C [Example 8, N-(5-((5-cyano-4-(3,4-dihydro-1H-[1,4]oxazino[4,3-a]indol-10-yl)pyrimidin-2-yl)amino)-2-((2-(dimethylamino)ethyl)(methyl)amino)-4-methoxyphenyl)acrylamide] | < 100 | 100 to 500 | A (Group A compounds have an IC50 value for the indicated mutant below about 100 nM) | 100 to 500 |
| C=CC(=O)Nc1cc(Nc2ncc(Cl)c(-c3c4n(c5ccccc35)CCOC4)n2)c(OC)cc1N(C)CCN(C)C [Example 9, N-(5-((5-chloro-4-(3,4-dihydro-1H-[1,4]oxazino[4,3-a]indol-10-yl)pyrimidin-2-yl)amino)-2-((2-(dimethylamino)ethyl)(methyl)amino)-4-methoxyphenyl)acrylamide] | 500 to 1000 | > 1000 | A (Group A compounds have an IC50 value for the indicated mutant below about 100 nM) | > 1000 |
